Measured values reported in patent US20180250303A1, “TGF BETA RECEPTOR ANTAGONISTS” (BRISTOL-MYERS SQUIBB COMPANY, priority 2015, published 2018).

Legend:
HIS-TGFβR1 T204D = target: T1, HIS-TGFβR1 T204D (Homo sapiens, UniProt P36897, T204D); experiment: HTRF probe displacement assay, TGFβR1 HIS T204D; type: binding; conditions: 1 nM HIS-TGFβR1 T204D, labeled probe at Kd, 1 hour at room temperature
T1 sequence (P36897 34-503 T204D): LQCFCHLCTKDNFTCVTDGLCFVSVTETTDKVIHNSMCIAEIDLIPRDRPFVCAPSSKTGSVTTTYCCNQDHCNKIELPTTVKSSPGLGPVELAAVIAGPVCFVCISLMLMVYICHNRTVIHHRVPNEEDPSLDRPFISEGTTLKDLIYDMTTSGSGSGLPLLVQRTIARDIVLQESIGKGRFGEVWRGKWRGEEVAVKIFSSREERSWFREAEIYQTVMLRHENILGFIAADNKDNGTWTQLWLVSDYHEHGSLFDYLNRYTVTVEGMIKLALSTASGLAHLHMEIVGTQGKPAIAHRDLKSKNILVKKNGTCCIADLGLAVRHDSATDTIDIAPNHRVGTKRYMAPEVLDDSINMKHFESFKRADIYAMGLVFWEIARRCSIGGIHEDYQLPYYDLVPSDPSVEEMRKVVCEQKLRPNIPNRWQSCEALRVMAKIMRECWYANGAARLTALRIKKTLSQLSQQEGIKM
Method: (§1) Compounds were dissolved at 10 mM in dimethylsulfoxide (DMSO) and evaluated at eleven concentrations. IC50 values were derived by non-linear regression analysis.

HIS-TGFβR2 WT = HIS-TGFβR2 WT (Homo sapiens, UniProt P37173); experiment: HTRF probe displacement assay, TGFβR2 HIS WT; type: binding; conditions: 1 nM HIS-TGFβR2 WT, labeled probe at Kd, 1 hour at room temperature
HIS-TGFβR2 WT, sequence (P37173 23-567): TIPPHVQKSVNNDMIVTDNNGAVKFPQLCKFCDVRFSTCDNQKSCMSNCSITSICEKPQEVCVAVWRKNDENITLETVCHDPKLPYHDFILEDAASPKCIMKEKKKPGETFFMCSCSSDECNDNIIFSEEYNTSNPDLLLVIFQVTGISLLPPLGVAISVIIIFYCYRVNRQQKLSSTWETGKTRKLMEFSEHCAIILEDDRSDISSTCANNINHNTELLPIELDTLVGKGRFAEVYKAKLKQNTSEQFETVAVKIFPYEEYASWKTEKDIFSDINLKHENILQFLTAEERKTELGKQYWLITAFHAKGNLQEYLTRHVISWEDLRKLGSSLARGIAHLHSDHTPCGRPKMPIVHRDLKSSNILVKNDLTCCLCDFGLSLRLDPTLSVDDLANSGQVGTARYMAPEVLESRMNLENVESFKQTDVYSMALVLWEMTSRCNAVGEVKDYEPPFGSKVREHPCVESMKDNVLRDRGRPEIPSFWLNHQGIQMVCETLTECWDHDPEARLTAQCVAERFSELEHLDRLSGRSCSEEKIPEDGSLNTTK
Method: as §1

Structure (SMILES) | IC50 (HIS-TGFβR1 T204D) | IC50 (HIS-TGFβR2 WT)
CC(=O)Nc1cc(Nc2nc(-c3cccc(C(F)(F)F)n3)nc3[nH]c(C4CC4)nc23)ccn1 [Example 17, N-(4-((8-cyclopropyl-2-(6-(trifluoromethyl)pyridin-2-yl)-9H-Purin-6-yl)amino)pyridin-2-yl)acetamide] | 1.6 nM | > 15000 nM
CC(=O)Nc1cc(Nc2nc(-c3ccc(F)c(C)n3)nc3[nH]cnc23)ccn1 [Example 24, N-(4-((2-(5-fluoro-6-methylpyridin-2-yl)-9H-purin-6-yl)amino)pyridin-2-yl)acetamide] | 0.34 nM | 290 nM
CC(=O)Nc1cc(Nc2nc(-c3cccc(C(F)F)n3)nc3[nH]cnc23)ccn1 [Example 7, N-(4-((2-(6-(difluoromethyl)pyridin-2-yl)-9H-Purin-6-yl)amino)pyridin-2-yl)acetamide] | 0.72 nM | 520 nM
CC(=O)Nc1cc(Nc2nc(-c3cccc(C)n3)nc3[nH]cnc23)ccn1 [Example 6, N-(4-((2-(6-methylpyridin-2-yl)-9H-Purin-6-yl)amino)pyridin-2-yl)acetamide] | 0.36 nM | 440 nM
Cc1nc(-c2nc(Nc3ccncc3F)c3nc[nH]c3n2)ccc1F [Example 5, 2-(5-fluoro-6-methylpyridin-2-yl)-N-(3-fluoropyridin-4-yl)-9H-Purin-6-amine] | 0.36 nM | 2800 nM
Fc1cnccc1Nc1nc(-c2cccc(C(F)F)n2)nc2[nH]cnc12 [Example 2, 2-(6-(difluoromethyl)pyridin-2-yl)-N-(3-fluoropyridin-4-yl)-9H-Purin-6-amine] | 0.41 nM | 3100 nM
CC(=O)Nc1cc(Nc2nc(-c3ccccn3)nc3[nH]cnc23)ccn1 [Example 9, N-(4-((2-(pyridin-2-yl)-9H-Purin-6-yl)amino)pyridin-2-yl)acetamide] | 0.9 nM | 140 nM
Cc1nc2c(Nc3ccncc3F)nc(-c3cccc(C(F)(F)F)n3)nc2[nH]1 [Example 16, N-(3-fluoropyridin-4-yl)-8-methyl-2-(6-(trifluoromethyl)pyridin-2-yl)-9H-Purin-6-amine] | 5.3 nM | > 15000 nM
CC(=O)Nc1cc(Nc2nc(-c3cccc(C(F)(F)F)n3)nc3[nH]c(C)nc23)c(F)cn1 [Example 15, N-(5-fluoro-4-((8-methyl-2-(6-(trifluoromethyl)pyridin-2-yl)-9H-Purin-6-yl)amino)pyridin-2-yl)acetamide] | 51 nM | > 15000 nM

More lines, now with the values ahead:

IC50 (HIS-TGFβR1 T204D) | IC50 (HIS-TGFβR2 WT) | Structure (SMILES)
0.48 nM | > 15000 nM | O=C(CCC(F)(F)F)Nc1cc(Nc2nc(-c3cccc(C(F)(F)F)n3)nc3[nH]cnc23)ccn1 [Example 23, 4,4,4-trifluoro-N-(4-((2-(6-(trifluoromethyl)pyridin-2-yl)-9H-purin-6-yl)amino)pyridin-2-yl)butanamide]
1.1 nM | > 15000 nM | Fc1cnccc1Nc1nc(-c2cccc(C(F)(F)F)n2)nc2[nH]cnc12 [Example 3, N-(3-fluoropyridin-4-yl)-2-(6-(trifluoromethyl)pyridin-2-yl)-9H-Purin-6-amine]
0.56 nM | 470 nM | O=C(Nc1cc(Nc2nc(-c3cccc(C(F)(F)F)n3)nc3[nH]cnc23)ccn1)C1CC1 [Example 20, N-(4-((2-(6-(trifluoromethyl)pyridin-2-yl)-9H-purin-6-yl)amino)pyridin-2-yl)cyclopropanecarboxamide]
 | 1300 nM | CC(=O)Nc1cc(Nc2nc(-c3cccc(C(F)(F)F)n3)nc3[nH]cnc23)ccn1 [Example 8, N-(4-((2-(6-(trifluoromethyl)pyridin-2-yl)-9H-Purin-6-yl)amino)pyridin-2-yl)acetamide]
1.1 nM | > 15000 nM | COCCC(=O)Nc1cc(Nc2nc(-c3cccc(C(F)(F)F)n3)nc3[nH]cnc23)ccn1 [Example 22, 3-methoxy-N-(4-((2-(6-(trifluoromethyl)pyridin-2-yl)-9H-purin-6-yl)amino)pyridin-2-yl)propanamide]
2 nM | > 15000 nM | COC(=O)Nc1cc(Nc2nc(-c3cccc(C(F)(F)F)n3)nc3[nH]cnc23)ccn1 [Example 19, Methyl (4-((2-(6-(trifluoromethyl)pyridin-2-yl)-9H-purin-6-yl)amino)pyridin-2-yl)carbamate]
1.6 nM | > 15000 nM | CC(=O)Nc1cc(Nc2nc(-c3cccc(C(F)(F)F)n3)nc3[nH]c(C)nc23)ccn1 [Example 14, N-(4-((8-methyl-2-(6-(trifluoromethyl)pyridin-2-yl)-9H-Purin-6-yl)amino)pyridin-2-yl)acetamide]
0.45 nM | > 15000 nM | COCC(=O)Nc1cc(Nc2nc(-c3cccc(C(F)(F)F)n3)nc3[nH]cnc23)ccn1 [Example 21, 2-methoxy-N-(4-((2-(6-(trifluoromethyl)pyridin-2-yl)-9H-purin-6-yl)amino)pyridin-2-yl)acetamide]
8.9 nM | > 15000 nM | CC(=O)Nc1nccc(Nc2nc(-c3cccc(C(F)(F)F)n3)nc3[nH]cnc23)c1F [Example 12, N-(3-fluoro-4-((2-(6-(trifluoromethyl)pyridin-2-yl)-9H-Purin-6-yl)amino)pyridin-2-yl)acetamide]
